Reference: ChEMBL document CHEMBL1201862, “PubChem BioAssay data set” (2004)
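Each compound was tested at five concentrations against cells in 96-well plates for 48 hours. At the GI50, growth is halved.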 The source made the active and inactive calls. No stated cut-off is given here; in the data, active = GI50 up to about 1.1 µM and inactive = higher.

Assays:
Test in all cases: NCI-60 cell line screen, 48 h
RPMI-8226 = test system: RPMI-8226
NCI-H226 = test system: NCI-H226
LOX IMVI = test system: LOX IMVI
SN12C = test system: SN12C
MOLT-4 = test system: MOLT-4
SK-MEL-2 = test system: SK-MEL-2
UACC-62 = test system: UACC-62
A498 = test system: A498
UACC-257 = test system: UACC-257
NCI-H460 = test system: NCI-H460
SW-620 = test system: SW-620
HCC 2998 = test system: HCC 2998
OVCAR-3 = test system: OVCAR-3
HCT-15 = test system: HCT-15
SF-268 = test system: SF-268
SK-MEL-5 = test system: SK-MEL-5
EKVX = test system: EKVX
HOP-62 = test system: HOP-62

| SMILES | GI50 (RPMI-8226) | GI50 (NCI-H226) | GI50 (LOX IMVI) | GI50 (SN12C) | GI50 (MOLT-4) | GI50 (SK-MEL-2) | GI50 (UACC-62) | GI50 (A498) | GI50 (UACC-257) | GI50 (NCI-H460) | GI50 (SW-620) | GI50 (HCC 2998) | GI50 (OVCAR-3) | GI50 (HCT-15) [µM] | GI50 (SF-268) | GI50 (SK-MEL-5) | GI50 (EKVX) | GI50 (HOP-62) |
| --- | --- | --- | --- | --- | --- | --- | --- | --- | --- | --- | --- | --- | --- | --- | --- | --- | --- | --- |
| O=c1[c-](-c2ccccc2)[se]c(-c2ccccc2)[n+]1-c1ccccc1 | 29.1 µM (inactive) | 3.13 µM (inactive) | 13.3 µM (inactive) | 5.05 µM (inactive) | 18.8 µM (inactive) | 6.55 µM (inactive) | 13 µM (inactive) | 10 µM (inactive) | 12.8 µM (inactive) | 15.9 µM (inactive) | 12.5 µM (inactive) | 6.35 µM (inactive) | 10 µM (inactive) | 13.2 | 5.55 µM (inactive) | 13 µM (inactive) | 13.5 µM (inactive) | – |
| CSc1s[s+]c(SC)c1[O-] | – | > 100 µM (inactive) | – | 22.1 µM (inactive) | 13.3 µM (inactive) | 32.3 µM (inactive) | 14.4 µM (inactive) | > 100 µM (inactive) | 17.7 µM (inactive) | 29.3 µM (inactive) | 17.8 µM (inactive) | > 100 µM (inactive) | 26.5 µM (inactive) | 32.9 | 20.9 µM (inactive) | 90.6 µM (inactive) | 75.7 µM (inactive) | > 100 µM (inactive) |
| c1ccc2c(c1)OCCc1cn[nH]c1-2 | – | 22.2 µM (inactive) | > 100 µM (inactive) | > 79.3 µM (inactive) | > 100 µM (inactive) | > 100 µM (inactive) | 66.7 µM (inactive) | > 93.5 µM (inactive) | > 100 µM (inactive) | > 100 µM (inactive) | > 100 µM (inactive) | > 100 µM (inactive) | > 100 µM (inactive) | > 100 | > 100 µM (inactive) | > 100 µM (inactive) | 80.5 µM (inactive) | > 61.7 µM (inactive) |
| CC(=O)Oc1cc2c(cc1OC(C)=O)OCC(c1ccccc1)C2 (centres undefined) | 8.39 µM (inactive) | 22.2 µM (inactive) | 13.5 µM (inactive) | 26.4 µM (inactive) | 5.85 µM (inactive) | 27.4 µM (inactive) | 19.2 µM (inactive) | 7.05 µM (inactive) | 14.1 µM (inactive) | 20.7 µM (inactive) | 6.5 µM (inactive) | 29.1 µM (inactive) | 22.6 µM (inactive) | 13 | 14.7 µM (inactive) | 17.3 µM (inactive) | 28.3 µM (inactive) | 19.1 µM (inactive) |
| CC(=O)Nc1ccc(-c2nnc(SCC(=O)Nc3ccccc3Cl)o2)cc1 | – | > 100 µM (inactive) | > 100 µM (inactive) | > 100 µM (inactive) | > 100 µM (inactive) | > 100 µM (inactive) | – | > 100 µM (inactive) | > 100 µM (inactive) | > 100 µM (inactive) | > 100 µM (inactive) | > 100 µM (inactive) | 93.1 µM (inactive) | > 100 | > 100 µM (inactive) | > 100 µM (inactive) | – | > 100 µM (inactive) |
| O=C(Nc1ccc(Cl)cc1Cl)OC(Cn1cncn1)c1ccc(Cl)cc1Cl (centres undefined) | 94.6 µM (inactive) | 19.7 µM (inactive) | 16.3 µM (inactive) | 16.9 µM (inactive) | 31.6 µM (inactive) | 19.2 µM (inactive) | 14.8 µM (inactive) | 20 µM (inactive) | 17 µM (inactive) | – | 16.7 µM (inactive) | – | 15.8 µM (inactive) | 16.6 | 17.1 µM (inactive) | 16.7 µM (inactive) | 16 µM (inactive) | 19.5 µM (inactive) |
